For assay [1], the system named is CD86 surface expression on CD19+/7AAD- mouse splenocytes stimulated with IgM. In words: CD86 Inhibition Assay. It counts as cell-based. To be noted: Splenocyte; total mouse splenocytes (Balb/c), IgM stimulation 24 hr.
Description: Following the 24 hr incubation, cells are transferred to conical bottom clear 96-well plates and pelleted by centrifugation at 1200×g×5 min. […] Cells are sorted on a BD FACSCalibur and gated on the CD19^+/7AAD^− population. The levels of CD86 surface expression on the gated population is measured versus test compound concentration.
The target of a further assay is Btk (Homo sapiens (Human), UniProt Q06187). In words: standard biochemical Btk Kinase Assay (Example 901). To be noted: Table 2.

The source of these data is patent US8618107B2 (Gilead Connecticut, Inc., priority 2010, dated 2013).

Btk, sequence (Q06187 whole entry): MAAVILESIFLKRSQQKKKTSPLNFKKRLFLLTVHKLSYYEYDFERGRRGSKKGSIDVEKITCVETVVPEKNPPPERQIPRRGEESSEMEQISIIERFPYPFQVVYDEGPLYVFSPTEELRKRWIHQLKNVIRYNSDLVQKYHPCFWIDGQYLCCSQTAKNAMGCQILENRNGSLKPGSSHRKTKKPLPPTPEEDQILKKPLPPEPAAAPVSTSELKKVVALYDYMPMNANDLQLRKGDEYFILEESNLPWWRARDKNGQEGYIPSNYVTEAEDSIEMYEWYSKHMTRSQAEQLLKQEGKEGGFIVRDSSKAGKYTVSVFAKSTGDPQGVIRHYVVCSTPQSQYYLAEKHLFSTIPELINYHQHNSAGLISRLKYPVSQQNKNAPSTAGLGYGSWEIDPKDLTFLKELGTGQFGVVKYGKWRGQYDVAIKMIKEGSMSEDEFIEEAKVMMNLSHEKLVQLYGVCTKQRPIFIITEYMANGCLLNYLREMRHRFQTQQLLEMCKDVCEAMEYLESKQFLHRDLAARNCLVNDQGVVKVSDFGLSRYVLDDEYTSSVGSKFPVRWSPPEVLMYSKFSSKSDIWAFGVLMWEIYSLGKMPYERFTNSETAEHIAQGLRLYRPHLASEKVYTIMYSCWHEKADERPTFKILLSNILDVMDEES
Excerpt for Btk: Determination of IC50 values can be accomplished using conventional techniques known in the art. In general, an IC50 can be determined by measuring the activity of a given enzyme in the presence of a range of concentrations of the inhibitor under study. The experimentally obtained values of enzyme activity then are plotted against the inhibitor concentrations used. […] Analogously, other inhibitory concentrations can be defined through appropriate determinations of activity.

For the compound `Cn1cc(-c2cccc(N3CCn4c(cc5c4CCCC5)C3=O)c2CO)nc(Nc2cnn(C3CC3)c2)c1=O` [Example 114, 2-(3-(6-(1-cyclopropyl-1H-pyrazol-4-ylamino)-4-methyl-5-oxo-4,5-dihydropyrazin-2-yl)-2-(hydroxymethyl)phenyl)-3,4,6,7,8,9-hexahydropyrazino[1,2-a]indol-1(2H)-one], it took 0.188 µM to reach a half-maximal effect in assay [1] (EC50).
Same read-out and setting: for `Cn1cc(-c2cc(F)cc(N3CCc4c(sc5c4CCCC5)C3=O)c2CO)cc(Nc2ccncn2)c1=O` [Example 115, 5-[5-Fluoro-2-(hydroxymethyl)-3-[1-methyl-6-oxo-5-(pyrimidin-4-ylamino)-1,6-dihydropyridin-3-yl]phenyl]-8-thia-5-azatricyclo[7.4.0.02,7]trideca-1(9),2(7)-dien-6-one] the value was 0.078 µM.
For `Cn1cc(-c2cc(F)cc(N3CCn4c(cc5c4CCCC5)C3=O)c2CO)cc(Nc2ccc(N3CCN(C4COC4)CC3)cn2)c1=O` [Example 210, 2-(5-fluoro-2-(hydroxymethyl)-3-(1-methyl-5-(5-(4-(oxetan-3-yl)piperazin-1-yl)pyridin-2-ylamino)-6-oxo-1,6-dihydropyridin-3-yl)phenyl)-3,4,6,7,8,9-hexahydropyrazino[1,2-a]indol-1(2H)-one], the EC50 in assay [1] came to 0.01 µM.
Take `Cn1cc(-c2cc(F)cc(N3CCc4c(sc5c4CCCC5)C3=O)c2CO)cc(Nc2ccc(N3CCN(C4COC4)CC3)cn2)c1=O` [Example 211, 5-[5-Fluoro-2-(hydroxymethyl)-3-[1-methyl-5-({5-[4-(oxetan-3-yl)piperazin-1-yl]pyridin-2-yl}amino)-6-oxo-1,6-dihydropyridin-3-yl]phenyl]-8-thia-5-azatricyclo[7.4.0.0^2,7]trideca-1(9),2(7)-dien-6-one]: in assay [1], the EC50 came out at 0.009 µM.
As for `CN1CCN(c2ccc(Nc3cc(-c4cc(F)cc(N5CCc6c(sc7c6CCCC7)C5=O)c4CO)cn(C)c3=O)nc2)CC1` [Example 212, 5-[5-Fluoro-2-(hydroxymethyl)-3-(1-methyl-5-{[5-(4-methylpiperazin-1-yl)pyridine-2-yl]amino}-6-oxo-1,6-dihydropyridin-3-yl)phenyl]-8-thia-5-azatricyclo[7.4.0.0^2,7]trideca-1(9),2(7)-dien-6-one], the EC50 in assay [1] worked out at 0.009 µM.
The compound `CC(C)N(C)Cc1ccc(Nc2cc(-c3cc(F)cc(N4CCc5c(sc6c5CCCC6)C4=O)c3CO)cn(C)c2=O)nc1` [Example 277, 5-[5-Fluoro-2-(hydroxymethyl)-3-{1-methyl-5-[(5-{[methyl(propan-2-yl)amino]methyl}pyridine-2-yl)amino]-6-oxo-1,6-dihydropyridin-3-yl}phenyl]-8-thia-5-azatricyclo[7.4.0.0^2,7]trideca-1(9),2(7)-dien-6-one] displayed an EC50 in assay [1] of 0.028 µM. This EC50 lies about 3.1-fold higher than the previous one.
Regarding `Cn1cc(-c2cc(F)cc(N3CCc4c(sc5c4CCCC5)C3=O)c2CO)cc(Nc2ccc(N3CCOCC3)cn2)c1=O` [Example 289, 2-(5-Fluoro-2-(hydroxymethyl)-3-(1-methyl-5-(5-morpholinopyridin-2-ylamino)-6-oxo-1,6-dihydropyridin-3-yl)phenyl)-3,4,5,6,7,8-hexahydrobenzothieno[2,3-c]pyridin-1(2H)-one], the EC50 in assay [1] is 0.01 µM. This EC50 is about 2.8-fold lower than that of the compound before.
`CN1CCC[C@H]1c1ccc(Nc2cc(-c3cc(F)cc(N4CCn5c(cc6c5CC(C)(C)C6)C4=O)c3CO)cn(C)c2=O)nc1` [Example 290, 10-[5-Fluoro-2-(hydroxymethyl)-3-[1-methyl-5-({5-[(2S)-1-methylpyrrolidin-2-yl]pyridine-2-yl}amino)-6-oxo-1,6-dihydropyridin-3-yl]phenyl]-4,4-dimethyl-1,10-diazatricyclo[6.4.0.0^2,6]dodeca-2(6),7-dien-9-one] showed an EC50 in assay [1] of 0.01 µM.
Consider `CN(C)CCOc1ccc(Nc2cc(-c3cc(F)cc(N4CCc5c(sc6c5CC(C)(C)C6)C4=O)c3CO)cn(C)c2=O)nc1` [Example 296, 10-{3-[5-({5-[2-(Dimethylamino)ethoxy]pyridin-2-yl}amino)-1-methyl-6-oxo-1,6-dihydropyridin-3-yl]-5-fluoro-2-(hydroxymethyl)phenyl}-4,4-dimethyl-7-thia-10-azatricyclo[6.4.0.0^2,6]dodeca-1(8),2(6)-dien-9-one], for which the midpoint of the response in assay [1], the EC50, lay at 0.001 µM.
For `Cn1cc(-c2cc(F)cc(N3CCc4c(sc5c4CC(C)(C)C5)C3=O)c2CO)cc(Nc2ccc(C3CCN(C4COC4)CC3)cn2)c1=O` [Example 299, 10-[5-Fluoro-2-(hydroxymethyl)-3-[1-methyl-5-({5-[1-(oxetan-3-yl)piperidin-4-yl]pyridine-2-yl}amino)-6-oxo-1,6-dihydropyridin-3-yl]phenyl]-4,4-dimethyl-7-thia-10-azatricyclo[6.4.0.0^2,6]dodeca-1(8),2(6)-dien-9-one], in assay [1], the EC50 stood at 0.009 µM.
As for `COc1nccc(Nc2cc(-c3cc(F)cc(N4CCn5c(cc6c5CC(C)(C)C6)C4=O)c3CO)cn(C)c2=O)n1` [Example 300], in assay [1], the EC50 is 0.009 µM.
`CCn1nc(Nc2cc(-c3cc(F)cc(N4CCn5c(cc6c5CC(C)(C)C6)C4=O)c3CO)cn(C)c2=O)cc1C` [Example 302, 10-(3-{5-[(1-Ethyl-5-methyl-1H-pyrazol-3-yl)amino]-1-methyl-6-oxo-1,6-dihydropyridin-3-yl}-5-fluoro-2-(hydroxymethyl)phenyl)-4,4-dimethyl-1,10-diazatricyclo[6.4.0.0^2,6]dodeca-2(6),7-dien-9-one]: on Btk, inhibition was half-maximal at 0.0099 µM (IC50). That is a single-digit nanomolar value.
For the compound `Cn1cc(-c2cc(F)cc(N3CCn4c(cc5c4CC(C)(C)C5)C3=O)c2CO)cc(Nc2ccc(N3CCN(C4COC4)CC3)cn2)c1=O` [Example 304, 10-[5-Fluoro-2-(hydroxymethyl)-3-[1-methyl-5-({5-[4-(oxetan-3-yl)piperazin-1-yl]pyridine-2-yl}amino)-6-oxo-1,6-dihydropyridin-3-yl]phenyl]-4,4-dimethyl-1,10-diazatricyclo[6.4.0.0^2,6]dodeca-2(6),7-dien-9-one], the IC50 on Btk was 0.0078 µM.
Take `Cn1cc(-c2cccc(N3CCc4c(sc5c4CCCC5)C3=O)c2CO)nc(Nc2ccc(C3CCN(C4COC4)CC3)cc2)c1=O` [Example 305, 5-[2-(Hydroxymethyl)-3-[4-methyl-6-({4-[1-(oxetan-3-yl)piperidin-4-yl]phenyl}amino)-5-oxo-4,5-dihydropyrazin-2-yl]phenyl]-8-thia-5-azatricyclo[7.4.0.0^2,7]trideca-1(9),2(7)-dien-6-one]: the IC50 against Btk was 0.0171 µM.
In the case of `CN1CCN(c2ccc(Nc3cc(-c4cccc(N5CCn6c(cc7c6CCCC7)C5=O)c4CO)nn(C)c3=O)nc2)CC1` [Example 307, 2-(2-(Hydroxymethyl)-3-(1-methyl-5-(5-(4-methylpiperazin-1-yl)pyridin-2-ylamino)-6-oxo-1,6-dihydropyridazin-3-yl)phenyl)-3,4,6,7,8,9-hexahydropyrazino[1,2-a]indol-1(2H)-one], 0.0071 µM corresponded to half-maximal inhibition at Btk (IC50).
For the compound `CN1CCC(c2ccc(Nc3cc(-c4cc(F)cc(N5CCc6c(sc7c6CCCC7)C5=O)c4CO)cn(C)c3=O)nc2)C1` (stereo not shown) [Example 308, 5-[5-Fluoro-2-(Hydroxymethyl)-3-(1-methyl-5-{[5-(1-methylpyrrolidin-3-yl)pyridine-2-yl]amino}-6-oxo-1,6-dihydropyridin-3-yl)phenyl]-8-thia-5-azatricyclo-[7.4.0.0^2,7]trideca-1(9),2(7)-dien-6-one], a half-maximal effect in assay [1] (EC50) was put at 0.063 µM.
Compound `Cn1cc(-c2cccc(N3CCc4c(cc5n4CCCC5)C3=O)c2CO)cc(Nc2cc3n(n2)CCOC3)c1=O` [Example 309, 5-[2-(Hydroxymethyl)-3-{1-oxo-1H,2H,3H,4H,6H,7H,8H,9H-pyrido[3,4-b]indolizin-2-yl}phenyl]-1-methyl-3-{4H,6H,7H-pyrazolo[3,2-c][1,4]oxazin-2-ylamino}-1,2-dihydropyridin-2-one] had an IC50 on Btk of 0.0165 µM. This counts as double-digit nanomolar.
Compound `CCN1CCN(c2ccc(Nc3cc(-c4cccc(N5CCc6c(cc7n6CCCC7)C5=O)c4CO)cn(C)c3=O)nc2)CC1` [Example 310, 3-{[5-(4-Ethylpiperazin-1-yl)pyridine-2-yl]amino}-5-[2-(hydroxymethyl)-3-{1-oxo-1H,2H,3H,4H,6H,7H,8H,9H-pyrido[3,4-b]indolizin-2-yl}phenyl]-1-methyl-1,2-dihydropyridin-2-one] came in with a half-maximal inhibitory concentration (IC50) against Btk of 0.0166 µM. The IC50 values of the last two compounds are within 1.5-fold of each other.
In the case of `Cn1cc(-c2cccc(N3CCn4c(cc5c4CC(C)(C)C5)C3=O)c2CO)cc(Nc2ccc(N3CCN(C4COC4)CC3)cn2)c1=O` [Example 311, 10-[2-(Hydroxymethyl)-3-[1-methyl-5-({5-[4-(oxetan-3-yl)piperazin-1-yl]pyridine-2-yl}amino)-6-oxo-1,6-dihydropyridin-3-yl]phenyl]-4,4-dimethyl-1,10-diazatricyclo[6.4.0.0^2,6]dodeca-2(6),7-dien-9-one], in assay [1], the midpoint of the response, the EC50, lay at 0.03 µM.
The same measure, in the same setting: to `Cn1cc(-c2cc(F)cc(N3CCc4c(sc5c4CC(C)(C)C5)C3=O)c2CO)cc(Nc2cc3n(n2)CCN(C2COC2)C3)c1=O` [Example 318, 10-[5-Fluoro-2-(hydroxymethyl)-3-(1-methyl-5-{[5-(oxetan-3-yl)-4H,5H,6H,7H-pyrazolo[1,5-a]pyrazin-2-yl]amino}-6-oxo-1,6-dihydropyridin-3-yl)phenyl]-4,4-dimethyl-7-thia-10-azatricyclo[6.4.0.0^2,6]dodeca-1(8),2(6)-dien-9-one] belongs 0.018 µM; to `Cn1cc(-c2cccc(N3CCn4c(cc5c4CCCC5)C3=O)c2CO)cc(Nc2cc3n(n2)CCN(C2COC2)C3)c1=O` [Example 319, 2-(2-(Hydroxymethyl)-3-(1-methyl-5-(5-(oxetan-3-yl)-4,5,6,7-tetrahydropyrazolo[1,5-a]pyrazin-2-ylamino)-6-oxo-1,6-dihydropyridin-3-yl)phenyl)-3,4,6,7,8,9-hexahydropyrazino[1,2-a]indol-1(2H)-one], 0.016 µM; to `CN(Cc1cc(Nc2cc(-c3cc(F)cc(N4CCn5c(cc6c5CC(C)(C)C6)C4=O)c3CO)cn(C)c2=O)nn1C)C1COC1` [Example 321, 10-[5-Fluoro-2-(Hydroxymethyl)-3-{1-methyl-5-[(1-methyl-5-{[methyl(oxetan-3-yl)amino]methyl}-1H-pyrazol-3-yl)amino]-6-oxo-1,6-dihydropyridin-3-yl}phenyl]-4,4-dimethyl-1,10-diazatricyclo[6.4.0.0^2,6]dodeca-2(6),7-dien-9-one], 0.044 µM.

Broadly, the EC50 is the concentration at which the effect is half-maximal. Lower therefore signals a more potent agent. The term IC50 denotes the point on the concentration scale where inhibition reaches its midpoint. A higher IC50 goes with a need for much substance.
